In US20220273637A1, “NOVEL PFAR-INHIBITING COMPOUNDS” (UNIVERSITE DE BRETAGNE OCCIDENTALE (UBO), priority 2019, published 2022):

system: PABPN1 aggregates; assay: not given; assay type: cell-based, murine; details: not given

Row | Compound | nuclei having aggregates of the PABPN1 protein | activity compared with guanabenz (positive control)
1 | CC(C)(C)c1ccc(C(=O)CCCN2CCC(OC(c3ccccc3)c3ccccc3)CC2)cc1 [ebastine] | reduce the amount of muscle cell nuclei containing PABPN1 aggregates | –
2 | CN1CCC[C@@H]1CCO[C@](C)(c1ccccc1)c1ccc(Cl)cc1 [clemastine] | negative | –
3 | CN1CCCC(n2nc(Cc3ccc(Cl)cc3)c3ccccc3c2=O)CC1 (centres unmarked) [azelastine] | reduce the amount of muscle cell nuclei containing PABPN1 aggregates | –
4 | CN(C)C(=O)C(CCN1CCC(O)(c2ccc(Cl)cc2)CC1)(c1ccccc1)c1ccccc1 [loperamide] | reduce the amount of muscle cell nuclei containing PABPN1 aggregates | –
5 | CN1C(=O)CN=C(c2ccccc2)c2cc(Cl)ccc21 [diazepam] | negative | –
6 | CN(C)CCCN1c2ccccc2Sc2ccc(C(F)(F)F)cc21 [triflupromazine] | negative | –
7 | CN1CCCC(CC2c3ccccc3Sc3ccccc32)C1 (centres unmarked) [metixene] | reduce the amount of muscle cell nuclei containing PABPN1 aggregates | more active than guanabenz
8 | CNCC[C@H](Oc1cccc2ccccc12)c1cccs1 [duloxetine] | reduce the amount of muscle cell nuclei containing PABPN1 aggregates | –
9 | CSc1ccc2c(c1)N(CCC1CCCCN1C)c1ccccc1S2 (centres unmarked) [thioridazine] | reduce the amount of muscle cell nuclei containing PABPN1 aggregates | –
10 | COc1ccc(CCN2CCC(Nc3nc4ccccc4n3Cc3ccc(F)cc3)CC2)cc1 [astemizole] | reduce the amount of muscle cell nuclei containing PABPN1 aggregates | –

system: PFAR (protein folding activity of ribosome); assay: Inhibition of PFAR in yeast cells (LuxAB luciferase refolding after heat shock); assay type: cell-based; details: not given

Row | Compound | inhibition of PFAR
11 | CN1C(=O)CN=C(c2ccccc2)c2cc(Cl)ccc21 [diazepam] | do not inhibit PFAR
12 | c1ccc(CN(CC2=NCCN2)c2ccccc2)cc1 [antazoline] | do not inhibit PFAR

system: Drosophila expressing PABPN1-17ala; assay: Drosophila model of OPMD (PABPN1-17ala): abnormal wing position; assay type: in vivo; details: 2 mM in food, day 3 to day 6, chi-squared test
Text: The model used is a fruit fly model for OPMD in which the mammalian protein PABPN1 with a repetition of 17 alanines (PABPN1-17a1a) is specifically expressed in the muscles of Drosophila (Chartier et al. 2006; Chartier et al. 2015). These models reproduce the characteristics of the disease, i.e. weakness and progressive muscular degeneration, and also the formation of nuclear PABPN1 aggregates. Thus, the expression of PABPN1-17ala in the indirect wing muscles leads to an abnormal wing posture, resulting from the disorder of the muscle function and degeneration of the muscles (Chartier et al. 2006). […]
The compounds were administered in the food, prepared as follows: an instant Drosophila medium (Carolina Biological Supply Company) was reconstituted in each tube with a 1% solution of yeast in water, supplemented by the compounds dissolved in DMSO with an increasing concentration, or with DMSO alone. […] The effect of the compounds was quantified by the daily measurement of the number of flies presenting an abnormal wing posture, corresponding to the flies expressing PABPN1-17ala, from day 3 to day 6 of the adult age: groups of five males per condition are placed in an empty tube and the number of males having an abnormal wing position is recorded by direct observation of the flies in the tube, without anesthesia.

Row | Compound | number of flies presenting an abnormal wing posture relative to DMSO
13 | CN1CCCC(CC2c3ccccc3Sc3ccccc32)C1 (centres unmarked) [metixene] | significant reduction
